Our source for the RP-LC retention time values is the METLIN SMRT retention time set (Domingo-Almenara et al. 2019).

This data set can be described thus: gradient 5% acetonitrile 3 min, to 50% in 2 min, to 85% in 15 min, held 3 min, 100 µL/min. Particulars: column: Zorbax Extend-C18 2.1 x 50 mm; eluents: water / acetonitrile, 0.1% formic acid. The method, boiled down:
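Using water and acetonitrile that each contained 0.1% formic acid, mixtures of ~100 pure standards were separated at 100 μL/min on a Zorbax Extend-C18 column (2.1 × 50 mm, 1.8 μm). The HPLC fed a quadrupole time-of-flight mass spectrometer working in positive and negative ionization mode, with dead and dwell volumes of 40 μL and 900 μL. Data were acquired over 3 months. Retention time was read from computationally picked adduct peaks after manual inspection of each.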
For `COc1ccc(NC(=O)C2CCc3nc(N4CCOCC4)ncc3C2)cc1C(F)(F)F` (centres undefined), the RP-LC retention time was 858 s.
To `COCCc1noc(C2Cc3ccccc3N2C(=O)NCc2cccc(OC)c2)n1` (centres undefined) belongs 618 s; to `CCNC(=O)NCc1nc(-c2ccc(Cl)cc2)no1`, 752 s; to `Cc1ccc(S(=O)(=O)N2CCCN(C)c3ccccc32)cc1F`, 1100 s.
To `CCc1ccc(C2=C(C)C(N3CCCN(C(=O)c4ccoc4)CC3)=NS2(=O)=O)cc1` belongs 832 s; to `COc1ccc(S(=O)(=O)N2CCCC(C(=O)NCc3ccccn3)C2)cc1Cl` (centres undefined), 838 s; to `O=C1/C(=C/c2ccc(Cl)c(Cl)c2)CN(C(=O)CCN2CCOCC2)C/C1=C\c1ccc(Cl)c(Cl)c1`, 881 s.
To `CCC(C)NC(=O)C1CCN(S(=O)(=O)c2cc(-c3noc(C)n3)cs2)CC1` (centres undefined) belongs 797 s; to `Cc1ccc(Cl)cc1NC(=O)C(=O)c1cccn1C`, 878 s; to `COC(=O)c1cccc(NC(=O)c2sc(-c3cn(C)c4ncccc34)nc2C)c1`, 927 s.
The compound `CC1(C)C2CCC(CN=C(N)CSS(=O)(=O)O)C1C2` (centres undefined) displayed an RP-LC retention time of 738 s.
As for `COc1ccccc1Cc1noc(C2CN(S(=O)(=O)c3c(C)noc3C)C2)n1`, the RP-LC retention time is 897 s.
In the case of `CCCNC(=O)N1C[C@@H]2C(=O)N(CCc3ccccc3)C(=O)[C@@H]2C1`, the RP-LC retention time is 716 s.
To `O=C(Nc1cc(F)cc(F)c1)NC1CCN(c2ccccc2)C1=O` (centres undefined) belongs 851 s.
To `CCN1C[C@]2(OC(=O)c3ccccc3NC(C)=O)CCC(OC)[C@@]34C5C[C@@H]6C(OC)C[C@](O)([C@@H](CC23)[C@@H]14)C5(O)[C@H]6OC` (some centres undefined) belongs 760 s.
Take `O=C(CN1CC=C(c2cnn(-c3ccc(F)cc3)c2)CC1)N1CCN(c2ccc(F)cc2)CC1`: the RP-LC retention time turned out to be 739 s.
`CNC(=O)c1sc2nc(-c3ccc(OC)cc3)c(NC(C)(C)C)n2c1C` yielded an RP-LC retention time of 737 s.
In turn, `CCOc1ccc(NC(=O)Cn2nc3n(c2=O)CCCC3)cc1` returned an RP-LC retention time of 655 s.
To `Cc1ccc(NC(=O)CN2C(=O)COc3ccc(C(=O)N4CCCC4)cc32)nc1` belongs 625 s; to `CC1=C(c2ccc(C)c(C)c2)S(=O)(=O)N=C1N1CCCN(C(=O)C2CCCO2)CC1` (centres undefined), 790 s.
Under `Cn1nc(-c2nc(C3CC3)no2)c2c1CCN(S(=O)(=O)c1ccccc1Cl)C2` stands 952 s; under `CC1CCC(NC(=O)CN2C(=O)CCCc3cc(S(=O)(=O)N4CCC(C)CC4)ccc32)CC1` (centres undefined), 1040 s; under `CCOC(=O)C1=C(CN2CCN(C)CC2)NC(=O)NC1c1ccc(OC(C)C)cc1` (centres undefined), 636 s.
To `CCc1nn2c(CNC(=O)Cc3ccc(OC)cc3Cl)c(C)nc2s1` belongs 670 s; to `COC(=O)CCCC(=O)Nc1ccc2[nH]c(=O)oc2c1`, 608 s.
For the compound `CCn1cnc(S(=O)(=O)N2CCC(C(=O)NCCc3ccccc3)CC2)c1`, the RP-LC retention time was found to be 697 s.
To `Cc1sc2ccn(C)c(=O)c2c1C(=O)N1CCN(c2ccc(F)cc2)CC1` belongs 746 s; to `O=C(Nc1c(-c2ccccc2)nc2ccccn12)c1ccc2ccccc2c1`, 720 s.
Under `CC(=O)N1CCc2cc(N3CC(C(=O)NCc4cccc(F)c4)CC3=O)ccc21` (centres undefined) stands 741 s; under `CCCNC(=O)C1CCCN(c2ccc(=O)n(-c3cccc(F)c3)n2)C1` (centres undefined), 699 s.
For the compound `O=C(Cn1cccc1-c1nnc(-c2ccccc2)o1)N1CCc2ccccc2C1`, the RP-LC retention time worked out at 986 s.
Under `O=C(NC1CCCCCCC1)C1CCN(C(=O)c2ncn3c2COC(c2ccccc2)C3)CC1` (centres undefined) stands 885 s.
In turn, `CCCn1cc(C(=O)NCc2ccccc2C)c(S(=O)(=O)N2CCC(C)CC2)n1` yielded an RP-LC retention time of 1110 s.
Under `CCOc1ccc(-c2ccc(=O)n(Cc3nc(-c4ccc(F)cc4)no3)n2)cc1` stands 1090 s; under `CCn1cc(C(=O)Nc2cccc(Cl)c2)c2cccnc21`, 938 s.
Under `COCCNC(=O)c1nc2cccnc2n(C)c1=O` stands 585 s.
Under `O=C(c1ccc(C(F)(F)F)s1)N1CCN(c2nc(CN3CCCCC3)cs2)CC1` stands 703 s.
`Cc1ccccc1NC(=O)Nc1ccc2c(c1)CCN2S(=O)(=O)c1ccccc1`: the RP-LC retention time worked out at 969 s.
To `Cc1nc(C)c(C(=O)Nc2ccc(F)cc2Cl)s1` belongs 820 s.
To `Cn1c(C(=O)NCCN2CCCCCC2)cc2c(-c3cccs3)nn(-c3ccccc3)c21` belongs 782 s; to `O=C(NC1CC1)c1nc2ccccn2c1-c1ccc(F)cc1`, 709 s; to `CCNC(=O)Cc1nnc(-c2ccc(C)cc2)o1`, 664 s.
Under `CCN(C(=O)Cn1ccc2c(=O)n(C)c(=O)n(C)c21)c1cccc(Cl)c1` stands 747 s; under `COc1ccccc1NC(=O)N1CCC(CNS(=O)(=O)c2cc(C)ccc2C)CC1`, 735 s; under `CCn1cnc(S(=O)(=O)N2CCC(C(=O)Nc3cccc(C)c3C)CC2)c1`, 721 s.
In turn, `COc1nc2ccccc2nc1N1CCCC(C(=O)Nc2cc(F)cc(F)c2)C1` (centres undefined) registered an RP-LC retention time of 1170 s.
Compound `O=C(Cn1ccnc1-c1ccnc(N2CCCC2)c1)NCc1ccccc1Cl` showed an RP-LC retention time of 606 s.
`Cc1ccc(C)c(NC(=O)Cn2nc3n(c2=O)CCCCC3)c1` yielded an RP-LC retention time of 722 s.
With `O=C(CCc1ccc2nc(-c3ccccc3)[nH]c2c1)NCc1cccnc1`, the RP-LC retention time was found to be 555 s.
Under `O=C(c1ccc(OCC2CCCN2C(=O)c2ccc(F)cc2F)cc1)N1CCOCC1` (centres undefined) stands 723 s; under `O=C(Cn1ncc2c(c1=O)N(C1CC1)C(=O)CS2)NC1CCCC1`, 615 s; under `O=C(COc1ccc(Cl)cc1)Nc1nnc(Cc2cccs2)o1`, 796 s.
To `Cc1ncc2c(n1)C[C@@H]1CC[C@H]2N1S(=O)(=O)c1ccc2c(c1)C(C)(C)C(=O)N2` belongs 636 s; to `Cc1ccc(Cn2nc3c(S(=O)(=O)N4CCN(c5ccc(F)cc5)CC4)cccn3c2=O)c(C)c1`, 1080 s.
As to `Cc1ccc(Cn2cc(-c3noc(-c4cccc(N(C)C)c4)n3)nn2)cc1`, the RP-LC retention time was 1100 s.
Under `CC(=O)Nc1nonc1-c1nnc(SCC(=O)Nc2nc(-c3ccccc3)cs2)n1C` stands 833 s.
Consider `CCCN1C(=O)c2cc(C(=O)NCc3ccc(F)cc3)nn2CC1(C)C(=O)NC1CCCC1` (centres undefined), for which the RP-LC retention time worked out at 824 s.
To `Cn1cc(CC(=O)NCc2ccc(F)cc2)c2cccnc21` belongs 669 s.
The compound `Cc1ccc(-n2ccnc2SCc2nc(-c3cccc(C)c3)no2)cc1` gave an RP-LC retention time of 1020 s.
Compound `COC(=O)CNC(=O)C1c2ccccc2C(=O)N(Cc2ccccc2)C12CCCC2` (centres undefined) came in with an RP-LC retention time of 857 s.
To `Cc1noc(C)c1S(=O)(=O)N1CCC(OCCOCc2ccccc2)CC1` belongs 1020 s; to `Cn1c(=O)c2cc(C(=O)Nc3ccc4c(c3)OCCO4)cnc2n(-c2ccccc2)c1=O`, 842 s.
Under `Cc1oc(-c2cccc(Cl)c2)nc1Cn1nnc(-c2nc(-c3ccc(F)cc3)no2)c1C` stands 869 s; under `Cc1noc(C)c1S(=O)(=O)N(Cc1cccs1)Cc1cccn1C`, 1000 s.
To `O=C(Nc1ccc2c(c1)OCCO2)c1noc2c1CCCC2` belongs 870 s.
`O=C(Nc1cnc(N2CCOCC2)nc1)c1ccc(F)c(Cl)c1` came in with an RP-LC retention time of 820 s.
To `Oc1ccc2c3c1OC1C(O)CC[C@@]4(O)[C@@H](C2)N(CC2CCC2)CC[C@]314` (some centres undefined) belongs 619 s; to `CCC(C)NC(=O)CSc1cc(N2CCN(c3ccc(OC)cc3)CC2)ncn1` (centres undefined), 775 s; to `COc1ccc(N2CCN(CCNC(=O)CCSc3ccccc3)CC2)cc1`, 606 s.
To `O=C(Nc1c(-c2ccc(F)cc2)nc2ccccn12)c1ccc2ccccc2c1` belongs 752 s; to `CC1CCN(c2ccc(NC(=O)CN3C(=O)CN(C)C(=O)c4ccccc43)cc2)CC1`, 671 s; to `Cc1nn(-c2ccccc2)c2c1N(CC(=O)NCCC(C)C)C(=O)CS2`, 821 s.
Under `O=C1NCCCCCN(C(=O)Nc2ccccc2F)[C@H]2CCC[C@@H]12` stands 734 s; under `CCOC(=O)c1cnc(N2CCN(c3ccccc3F)CC2)[nH]c1=O`, 908 s; under `Cc1ccc([N+](=O)[O-])cc1NC(=O)Cc1cc(-c2ccc(F)cc2)on1`, 896 s.
For the compound `COCCNC(=O)NCc1ccc2c(c1)N(C(=O)c1ccccc1)CC2`, the RP-LC retention time was 696 s.
As for `CNC(=O)C1CCCN(c2nc3ncn(CC(=O)Nc4ccccc4OC)c(=O)c3s2)C1` (centres undefined), the RP-LC retention time turned out to be 649 s.
In the case of `O=C1C(c2cccnc2)N(CC2CCCCC2)C(=O)CN1c1ccccc1` (centres undefined), the RP-LC retention time is 771 s.
Under `Cc1ccc(F)cc1NS(=O)(=O)c1cc2n(c1)CCCNC2=O` stands 671 s.
